Laboratory results as given in patent publication US20240116889A1, “ANTIVIRAL COMPOUNDS AND METHODS” (priority 2019, published 2024).

Columns and labels:
USSR H1N1 virus [1] = type: cell-based, influenza A virus (A/USSR/77)
USSR H1N1 virus [2] = type: cell-based, influenza A virus (A/USSR/77); remark: listed apart in the source
NPTr cells = conditions: for cell viability after priming: 30 min priming at doses used for infection studies
[3] = test system: extracellular Ca^2+ influx; experiment: Intracellular Ca2+ monitoring assay (Fluo-8) in NPTr cells; type: cell-based, pig
SARS-CoV-2 = SARS-CoV-2 replication in Calu-3 cells (RT-qPCR of media); type: cell-based; conditions: Calu-3 cells; […]; HC primed and continuously present
human coronavirus OC43 = type: cell-based; conditions: MRC-5 cells; TG 0.05 or 0.5 μM 30 min pre-infection; HC pre-infection or continuous
A549 cells = experiment: Cell viability of A549 cells (CellTiter-Glo 2.0); type: cell-based, human; conditions: RDV continuous, TG 30 min, overnight
Experimental: (A) A549 cells were primed with indicated TG, 0.3 μM RDV or DMSO control for 30 min, washed twice with PBS and infected with 0.01 MOI of CoV OC43 for 2 h, after which cells were washed again with PBS and incubated in fresh infection media (OptiMEM supplemented with 0.1 μg/ml TPCK-trypsin for TG primed cells, or fresh media in the continuous presence of RDV. At 24, 48 and 72 hpi, viral RNA extraction was performed on collected supernatants followed by one-step reverse transcription qPCR to detect the relative copy number of hCoV OC43 replicase polyprotein lab RNA, based on relative Ct method. Indicated significance relative to corresponding RDV-treated cells based on 2-way ANOVA Tukey's multiple comparisons test. (B) As in (A), A549 cells were primed continuously with RDV, or for 30 min with indicated TG or DMSO, washed, cultured overnight and subjected to cell viability assay (CellTiter-Glo 2.0 Cell Viability Assay, Promega).

[4] = test system: RSV (A2 strain, ATCC VR-1540); experiment: RSV production from infected HEp2 cells (immuno-detection / RT-qPCR); type: cell-based, human respiratory syncytial virus; conditions: HEp-2 cells; TG 30 min priming, Riba continuously present; four days post-infection
pdm H1N1 virus = type: cell-based, influenza A virus (A/California/07/2009)
RIG-I, OAS1 and PKR = type: cell-based, pig; conditions: NPTr cells (TG also NHBE cells and myoblasts); priming before or during infection

CC1=C2CC[C@@H](C)[C@H]2[C@H]2[C@@H](CC1)C2(C)C [(+)-ledene, reference compound]
progeny virus output (USSR H1N1 virus [1]): dramatic reduction in progeny virus output
progeny virus output vs DMSO control (USSR H1N1 virus [2]): reduced virus production like that of TG

Cc1nnsc1C(=O)Nc1ccc(-n2nc(C(F)(F)F)cc2C(F)(F)F)cc1 [BTP2]
progeny virus output vs DMSO control (USSR H1N1 virus [2]): small increase in progeny virus release
cell viability after priming (NPTr cells): Non-toxic

CC(=O)C1=C(O)[C@@H]2[C@H]3c4c[nH]c5cccc(c45)C[C@H]3C(C)(C)N2C1=O [CPA, Cyclopiazonic acid]
concentration from which Ca^2+ influx was detected [3]: ≥ 10 µM
reduction in ATP production (NPTr cells; 5 μM CPA for 30 min, 24 h incubation): 8.3%

CCN(CCO)CCCC(C)Nc1ccnc2cc(Cl)ccc12 (stereo not drawn) [HC, hydroxychloroquine, reference compound]
SARS-CoV-2 replication (SARS-CoV-2): no consistent effect
hCoV OC43 replication / progeny production (human coronavirus OC43): required its continuous presence during infection

CCC(CC)COC(=O)[C@H](C)N[P@](=O)(OC[C@H]1O[C@@](C#N)(c2ccc3c(N)ncnn23)[C@H](O)[C@@H]1O)Oc1ccccc1 [RDV, remdesivir, reference compound]
cell viability (A549 cells): no adverse effect on cell viability

NC(=O)c1ncn([C@@H]2O[C@H](CO)[C@@H](O)[C@H]2O)n1 [Riba, ribavirin, reference compound]
RSV progeny virus production, viral M-gene RNA [4]: significantly inhibited

COc1ccc(OC)c(-c2ccc(NC(=O)c3ccncc3F)cc2)c1 [Synta66]
progeny virus output vs DMSO control (USSR H1N1 virus [2]): small increase in progeny virus release
cell viability after priming (NPTr cells): Non-toxic

C[C@@H]1CC[C@H]2[C@@H](C)C(=O)O[C@@H]3O[C@@]4(C)CC[C@@H]1[C@]32OO4 [artemisinin]
progeny virus output vs DMSO control (pdm H1N1 virus): reduces progeny viral output
progeny virus output vs DMSO control (USSR H1N1 virus [2]): reduces progeny viral output

C=C1C(=O)O[C@@H]2[C@H]3C(C)=CC(=O)C3=C(C)CC[C@@H]12 [dehydroleucodine, reference compound]
progeny virus output (USSR H1N1 virus [1]): reduced progeny virus output
progeny virus output vs DMSO control (USSR H1N1 virus [2]): reduced virus production like that of TG

CC1=C2[C@H](/C=C(\C)C(=O)O)CC[C@@H](C)[C@H]2CC1 [valerenic acid]
progeny virus output vs DMSO control (USSR H1N1 virus [2]): reduced USSR H1N1 virus production like that of TG

tunicamycin
extracellular Ca^2+ influx ([3]; non-toxic doses (CPA up to 5 μM; TG 10 min)): did not induce Ca^2+ influx
progeny virus output vs DMSO control (pdm H1N1 virus): only slightly reduced virus production
virus production relative to correspondingly infected TG primed cells (pdm H1N1 virus; NPTr cells, […]): 2.8 times
progeny virus output vs DMSO control (USSR H1N1 virus [2]): only slightly reduced virus production
virus production relative to correspondingly infected TG primed cells (USSR H1N1 virus [2]; NPTr cells, […]): 7.5 times
cell viability after priming (NPTr cells): did not affect cell viability
expression of type I IFN associated genes in response to infection (RIG-I, OAS1 and PKR): little change in the expression of type I IFN associated genes
